Test results published in paper PMC9586938, “Picomolar fluorescent probes for compound affinity determination to carbonic anhydrase IX expressed in live cancer cells” (Scientific Reports, 2022).

Columns and labels:
[1] = target: T1, CAIX expressed on live HeLa cells (Homo sapiens, UniProt Q16790); test: Competition of unlabeled compound with 10 nM GZ19-32 on hypoxic HeLa cells (competitive binding model); format: cell-based; details: fit parameter of the competitive binding model, HeLa cells; read-out: KdB (competing fluorescent compound, component B)
T1 construct: recombinant CAIX and endogenous CAIX expressed on the cell surface; endogenous in cells; host or cells: HeLa (WT), grown under hypoxia (1% O2)

[2] = target: T2, catalytic domain of recombinant human CAIX (Homo sapiens, UniProt Q16790); test: Stopped-flow assay (SFA) of inhibition of CAIX catalytic activity; format: biochemical
T2 construct: Isozymes CAIX, CAXII, and CAXIV were the catalytic domains of the proteins; made in house; host or cells: mammalian cells
Description: The binding affinities of all fluorescein-containing compounds were determined for all 12 catalytically active CA isozymes by the thermal shift assay (TSA). […] However, the SFA technique cannot determine the affinities lower than the enzyme concentration used in the assay. […] In addition, we used isothermal titration calorimetry (ITC), the standard assay to determine affinity and enthalpy of protein–ligand binding. […] Therefore, ITC was used only to determine the enthalpy of interaction and confirm the ordering of compound affinities.
Inhibition of the CAIX catalytic activity (hydration reaction of CO2 to acid protons and bicarbonate) by selected compounds has been determined as previously described[41],[42]. The CA enzymatic activity and its inhibition were followed by the rate of change in pH spectrophotometrically followed by the change in color of indicator phenol red. Addition of increased concentrations of an inhibitor slowed the rate of the change in pH. The assay was performed using the stopped-flow equipment. The rate of spontaneous acidification due to CO2 hydration in water was subtracted from the enzymatically catalyzed rate.

Kd [1] | Compound | Ki [2]
0.2 nM | NS(=O)(=O)c1c(F)c(F)c(S(=O)(=O)CCC(=O)Nc2ccc3c(c2)C(=O)OC32c3ccc(O)cc3Oc3cc(O)ccc32)c(NC2CCCCCCC2)c1F [GZ19-32, 3-((2-(cyclooctylamino)-3,5,6-trifluoro-4-sulfamoylphenyl)sulfonyl)-N-(3',6'-dihydroxy-3-oxo-3H-spiro[isobenzofuran-1,9'-xanthen]-5-yl)propanamide] | 
 | 3-((2-(cyclooctylamino)-3,5,6-trifluoro-4-(methylsulfonyl)phenyl)sulfonyl)-N-(3',6'-dihydroxy-3-oxo-3H-spiro[isobenzofuran-1,9'-xanthen]-5-yl)propanamide and 3-((3-(cyclooctylamino)-2,5,6-trifluoro-4-(methylsulfonyl)phenyl)sulfonyl)-N-(3',6'-dihydroxy-3-oxo-3H-spiro[isobenzofuran-1,9'-xanthen]-5-yl)propanamide [GZ20-37] | 1500 nM
